Assay results from patent US10329302B2, “Bicyclic-fused heteroaryl or aryl compounds” (Pfizer Inc., priority 2014, dated 2019).
Where two headings read alike, the source gives them in different places.

Columns and labels:
[1] = biological target: human IRAK4 FL (Full Length) (Homo sapiens (Human), UniProt Q9NWZ3); test: IRAK4 Enzymatic DELFIA Assay, Protocol A; assay type: biochemical
[2] = tested on: R848-induced TNFα production by human peripheral blood mononuclear cells (PBMCs); test: R848 Induced TNFα in Human PBMC Assay; assay type: cell-based; conditions: Homo sapiens, PBMC, 3 h, read-out: R848-induced TNFa PBMC IC50 (nM)
[3] = human IRAK4 FL, 0.6 mM ATP (KM), read-out: IRAK4 DELFIA Protocol A IC50

Sequence of human IRAK4 FL (Full Length) (Q9NWZ3 whole entry): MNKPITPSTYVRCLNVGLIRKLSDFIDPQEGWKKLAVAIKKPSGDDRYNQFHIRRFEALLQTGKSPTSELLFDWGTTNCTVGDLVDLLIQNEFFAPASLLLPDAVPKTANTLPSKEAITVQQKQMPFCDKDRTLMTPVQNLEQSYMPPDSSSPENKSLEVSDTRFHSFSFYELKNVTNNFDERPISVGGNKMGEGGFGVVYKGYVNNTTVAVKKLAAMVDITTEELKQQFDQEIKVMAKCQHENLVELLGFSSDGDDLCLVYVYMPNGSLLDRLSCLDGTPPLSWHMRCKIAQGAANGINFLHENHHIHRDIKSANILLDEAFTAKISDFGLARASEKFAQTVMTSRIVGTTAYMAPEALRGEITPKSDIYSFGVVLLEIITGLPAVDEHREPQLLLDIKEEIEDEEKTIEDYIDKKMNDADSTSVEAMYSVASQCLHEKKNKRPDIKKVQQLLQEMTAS

| Compound | IC50 [1] [nM] | IC50 [2] [nM] | IC50 [1, 3] [nM] |
| --- | --- | --- | --- |
| COc1cc2c(OC[C@@H]3C[C@H](OC)C(=O)N3)cccc2cc1C(N)=O [Example 231, 3-methoxy-5-{[(2S,4S)-4-methoxy-5-oxopyrrolidin-2-yl]methoxy}naphthalene-2-carboxamide] | 67 | 509 | – |
| CC(C)Oc1cc2c(OC[C@@H]3CC(C)(C)C(=O)N3)nccc2cc1C(N)=O [Example 110, 1-{[(2S)-4,4-dimethyl-5-oxopyrrolidin-2-yl]methoxy}-7-(propan-2-yloxy)isoquinoline-6-carboxamide] | – | 1170 | 418 |
| Cc1nc(-c2cnc(OC[C@@H]3CCC(=O)N3)c3cc(OC(C)C)c(C(N)=O)cc23)cn1C [Example 372, 4-(1,2-dimethyl-1H-imidazol-4-yl)-1-{[(2S)-5-oxopyrrolidin-2-yl]methoxy}-7-(propan-2-yloxy)isoquinoline-6-carboxamide] | – | 649 | 11 |
| CC[C@@H]1[C@H](O)C(=O)N[C@@H]1COc1nccc2cc(C(N)=O)c(OC)cc12 [Example 352, 1-{[(2S,3S,4S)-3-ethyl-4-hydroxy-5-oxopyrrolidin-2-yl]methoxy}-7-methoxyisoquinoline-6-carboxamide] | – | 557 | 3.3 |
| COc1cc2c(OC[C@@H]3CC(F)(F)C(=O)N3)nccc2cc1C(N)=O [Example 146, 1-{[(2S)-4,4-difluoro-5-oxopyrrolidin-2-yl]methoxy}-7-methoxyisoquinoline-6-carboxamide] | – | 15 | 0.2 |
| CC(C)Oc1cc2c(OC[C@@H]3C[C@H](O)C(=O)N3)nccc2cc1C(N)=O [Example 150, 1-{[(2S,4S)-4-hydroxy-5-oxopyrrolidin-2-yl]methoxy}-7-(propan-2-yloxy)isoquinoline-6-carboxamide] | – | 864 | 41 |
| COc1cc2c(OC[C@H]3NC(=O)[C@H]4[C@@H]3C4(C)C)nccc2cc1C(N)=O [Example 263, 1-{[(1R,2S,5S)-6,6-dimethyl-4-oxo-3-azabicyclo[3.1.0]hex-2-yl]methoxy}-7-methoxyisoquinoline-6-carboxamide] | – | 496 | 80 |
| CC(C)Oc1cc2c(OC[C@@H]3C[C@@H](CC(F)(F)F)C(=O)N3)nccc2cc1C(N)=O [Example 151, 1-{[(2S,4S)-5-oxo-4-(2,2,2-trifluoroethyl)pyrrolidin-2-yl]methoxy}-7-(propan-2-yloxy)isoquinoline-6-carboxamide] | – | 25 | 1.2 |
| COc1cc2c(OC[C@@H]3COC(=O)N3)cccc2cc1C(N)=O [Example 233, 3-methoxy-5-{[(4R)-2-oxo-1,3-oxazolidin-4-yl]methoxy}naphthalene-2-carboxamide] | – | 47 | 0.3 |
| CC[C@]1(F)C[C@@H](COc2nccc3cc(C(N)=O)c(OC)cc23)NC1=O [Example 257, 1-{[(2S,4S)-4-ethyl-4-fluoro-5-oxopyrrolidin-2-yl]methoxy}-7-methoxyisoquinoline-6-carboxamide] | – | 60 | 6.8 |
| COc1cc2c(OC[C@@H]3C[C@@](F)(CO)C(=O)N3)nccc2cc1C(N)=O [Example 205, 1-{[(2S,4R)-4-fluoro-4-(hydroxymethyl)-5-oxopyrrolidin-2-yl]methoxy}-7-methoxyisoquinoline-6-carboxamide] | – | 380 | 3.6 |
| CC[C@H]1[C@@H](COc2nccc3cc(C(N)=O)c(OC)cc23)NC(=O)C1(F)F [Example 345, 1-{[(2S,3S)-3-ethyl-4,4-difluoro-5-oxopyrrolidin-2-yl]methoxy}-7-methoxyisoquinoline-6-carboxamide] | – | 1.6 | 0.2 |
| COc1cc2c(OC[C@@H]3C[C@@](F)(CCF)C(=O)N3)nccc2cc1C(N)=O [Example 276, 1-{[(2S,4R)-4-fluoro-4-(2-fluoroethyl)-5-oxopyrrolidin-2-yl]methoxy}-7-methoxyisoquinoline-6-carboxamide] | – | 107 | 4.1 |
| COc1cc2c(OC[C@H]3NC(=O)[C@@H]4[C@@H](C)[C@@H]43)ncc(F)c2cc1C(N)=O [Example 364, 4-fluoro-7-methoxy-1-{[(1S,2S,5R)-6-methyl-4-oxo-3-azabicyclo[3.1.0]hex-2-yl]methoxy}isoquinoline-6-carboxamide] | – | 145 | 16 |
| COC[C@@H]1CC(=O)N[C@@H]1COc1nccc2cc(C(N)=O)c(OC)cc12 [Example 340, 7-methoxy-1-{[(2S,3R)-3-(methoxymethyl)-5-oxopyrrolidin-2-yl]methoxy}isoquinoline-6-carboxamide] | – | 456 | 12 |
| COC[C@@H]1[C@H](F)C(=O)N[C@@H]1COc1nccc2cc(C(N)=O)c(OC)cc12 [Example 348, 1-{[(2S,3R,4S)-4-fluoro-3-(methoxymethyl)-5-oxopyrrolidin-2-yl]methoxy}-7-methoxyisoquinoline-6-carboxamide] | – | 42 | 0.7 |
| COc1cc2c(OC[C@@H]3CC(Cc4ccccc4)C(=O)N3)nccc2cc1C(N)=O (stereo partly drawn) [Example 258, 1-{[(2S)-4-benzyl-5-oxopyrrolidin-2-yl]methoxy}-7-methoxyisoquinoline-6-carboxamide] | – | 2930 | 141 |
| COC[C@H]1[C@H]2C(=O)N[C@H](COc3nccc4cc(C(N)=O)c(OC)cc34)[C@@H]12 [Example 314, 7-methoxy-1-{[(1S,2S,5S)-6-(methoxymethyl)-4-oxo-3-azabicyclo[3.1.0]hex-2-yl]methoxy}isoquinoline-6-carboxamide] | – | 8360 | 1980 |
| CC(C)Oc1cc2c(OC[C@@H]3C[C@](C)(F)C(=O)N3)ccnc2cc1C(N)=O [Example 269, 4-{[(2S,4S)-4-fluoro-4-methyl-5-oxopyrrolidin-2-yl]methoxy}-6-(propan-2-yloxy)quinoline-7-carboxamide] | – | 104 | 0.6 |
| COc1cc2c(OC[C@H]3COC(=O)N3)nccc2cc1C(N)=O [Example 229, 7-methoxy-1-{[(4S)-2-oxo-1,3-oxazolidin-4-yl]methoxy}isoquinoline-6-carboxamide] | – | 6300 | 3510 |
| COc1cc2c(OC[C@@H]3C[C@@H](C)C(=O)N3)nccc2cc1C(N)=O [Example 243, 7-methoxy-1-{[(2S,4R)-4-methyl-5-oxopyrrolidin-2-yl]methoxy}isoquinoline-6-carboxamide] | – | 713 | 205 |
| COc1cc2c(OC[C@H]3NC(=O)[C@@H](F)[C@H]3C)cccc2cc1C(N)=O [Example 218, 5-{[(2S,3S,4S)-4-fluoro-3-methyl-5-oxopyrrolidin-2-yl]methoxy}-3-methoxynaphthalene-2-carboxamide] | – | 11 | 0.3 |
| COc1cc2c(OC[C@@H]3COC(=O)N3)nccc2cc1C(N)=O [Example 230, 7-methoxy-1-{[(4R)-2-oxo-1,3-oxazolidin-4-yl]methoxy}isoquinoline-6-carboxamide] | – | 199 | 7 |
| CC(C)Oc1cc2c(OC[C@@H]3C[C@@H](C)C(=O)N3)nccc2cc1C(N)=O [Example 124, 1-{[(2S,4R)-4-methyl-5-oxopyrrolidin-2-yl]methoxy}-7-(propan-2-yloxy)isoquinoline-6-carboxamide] | – | 175 | 7.8 |
